The text below walks through data of patent US20050009924A1 (priority 2003, published 2005).

Each structure is given as a SMILES string. Read-outs that look alike come from different tables or passages of the source.

The test system of series [1] is transcriptional activity of hTERT. The series can be described thus: SEAP reporter assay of hTERT expression, PhTERT-SEAP (H1299). The class given is cell-based, human. As to conditions: for Relative SEAP activity (%): hTERT-H1299. In short, it runs like this:
(§1)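 Drug exposure: varying amounts, 24 h, following 24 h culture at 37° C and fresh medium. Media heat-inactivated (65° C, 10 min) to remove endogenous phosphatases, then combined 1:1 with diethanolamine/MgCl2/homoarginine buffer and 12 mM p-nitrophenyl phosphate; A405 slope recorded.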
In general terms: Reporter assays use an easily measured gene product as a stand-in for the process of interest.

The subject of another series is rat glioma C6 cells. The series can be described thus: Cytotoxicity assay (XTT colorimetric), C6 cells. The class given is cell-based. As to conditions: 48 h of drug exposure.
Series [2] concerns transcriptional activity of hTERT. The series can be described thus: SEAP reporter assay of hTERT expression, PhTERT-SEAP (hTERT-BJ1). The class given is cell-based, human. As to conditions: hTERT-BJ1. In short, it runs like this: as §1
Series [3] deals with hepatitis B virus transfected hepatoma cell lines, HepG 2.2.15 cells. The series can be described thus: Cytotoxicity assay, 2.2.15 cells. Type of series: cell-based, human. As to conditions: 48 h of drug exposure.
Series [4] deals with non-small-cell lung cancer cells H1299.
For the next series, the system named is human hepatoma G2 cells. Briefly: Cytotoxicity assay (XTT colorimetric), Hep G2. Type of series: cell-based. As to conditions: 48 h of drug exposure.
Series [5] in a line: MTT relative viability, PCMV-SEAP (hTERT-BJ1) cells. Type of series: cell-based. As to conditions: human, stable PCMV-SEAP reporter clone. The source says: Culture media were changed every 3 days. […] The stable clones were selected using G418.
The nature of series [6]: MTT relative viability, PhTERT-SEAP (H1299) cells. As to conditions: human.
The nature of series [7]: MTT relative viability, PhTERT-SEAP (hTERT-BJ1) cells. As to conditions: human.
For the next series, the system named is CMV promoter. Briefly: SEAP reporter assay of CMV promoter activity, PCMV-SEAP (hTERT-BJ1). The class given is cell-based. As to conditions: Homo sapiens, read-out: Relative SEAP activity (%).
In series [8] the test system is iron-induced lipid peroxidation in rat brain homogenates. The series can be described thus: Iron-induced lipid peroxidation in rat brain homogenates. As to conditions: 10 mM; for Inhibition of LP(10 mM): mean percent inhibition (Table 3).

Regarding `O=C1c2cccc(NCCCO)c2C(=O)c2cccc(NCCCO)c21` [IVh, 1,5-Bis(propanolamino)anthraquinone], the “Relative SEAP activity (%)” value in [1] (2.8 μM) is recorded as 88 ± 4.9%; in series [1] (28 μM) it was 69 ± 5.4%; in series [1] (282 μM), 33 ± 2.2%; in [2] (2.8 μM), 41 ± 12.5%; in series [2] (28 μM) it was 0 ± 22.1%; in series [2] (282 μM) it was “(−3) ± 10.0^ %”. Further, the IC50 (in the series with rat glioma C6 cells; in series [3]; in the series on human hepatoma G2 cells) was over 20 µM in each case. The “Relative MTT viability (%)” value with hTERT-BJ1 cells (2.8 µM) is on record as 72 ± 7.4%; in the series with hTERT-BJ1 cells (28 µM), 39 ± 10.5%; in the series on hTERT-BJ1 cells (282 µM), 26 ± 15.9%; in series [4] (2.8 µM), 107 ± 5.0%; in series [4] (28 µM), 49 ± 3.5%; in [4] (282 µM) it was 40 ± 10.4%.

As to `CC(C)(C)C(=O)Oc1cccc2c1C(=O)c1cccc(OC(=O)C(C)(C)C)c1C2=O` [IIId, 1,5-Bis(pivaloyloxy)-anthraquinone], the melting point (as a rule, the temperature, or range, at which the solid turns liquid) is 166 to 167 °C. The activity at 2.4 µM in series [1] (Homo sapiens, NCI-H1299, 2.4 μM, H1299, read-out: Relative SEAP activity (%)) came to 105 ± 4.9%. In addition, in series [1] (Homo sapiens, NCI-H1299, 24 μM, H1299, read-out: Relative SEAP activity (%)), the activity at 24 µM was determined as 78 ± 14.8%. In [1] (Homo sapiens, NCI-H1299, 240 μM, H1299, read-out: Relative SEAP activity (%)), the activity at 240 µM came out at 80 ± 10.1%. Also, 12 ± 1.5 µM corresponded to half-maximal inhibition with rat glioma C6 cells (Rattus norvegicus, C6) (IC50). Also, the activity at 2.4 µM in series [2] (Homo sapiens, 2.4 μM, read-out: Relative SEAP activity (%)) is 147 ± 11.1%. For the same compound, in [2] (Homo sapiens, 24 μM, read-out: Relative SEAP activity (%)), the activity at 24 µM is 165 ± 18.7%. Moreover, the activity at 240 µM in series [2] (Homo sapiens, 240 μM, read-out: Relative SEAP activity (%)) was determined as 141 ± 14.4%. Moreover, in series [5] (2.4 μM), the viability (as a rule, a read-out of living cells in per cent, often relative to untreated cells) at 48 h, 2.4 µM is 115 ± 7%. Further, the viability at 48 h, 24 µM in series [5] (24 μM) is 104 ± 8%. In addition, the viability at 48 h, 240 µM in [5] (240 μM) worked out at 103 ± 11%. Also, in series [6], the viability at 48 h, 2.4 µM worked out at 106 ± 8.9%; the viability at 48 h, 24 µM amounted to 97 ± 7.1%; the viability at 48 h, 240 µM stood at 70 ± 5.2%. Moreover, in series [7], the viability at 48 h, 2.4 µM was 94 ± 3.4%; the viability at 48 h, 24 µM was 93 ± 6%; the viability at 48 h, 240 µM stood at 100 ± 9%. Further, the activity at 2.4 µM in the series on CMV promoter (2.4 μM) came to 102 ± 10%. Also, in the series with CMV promoter (24 μM), the activity at 24 µM was 114 ± 18%. Further, the activity at 240 µM in the series with CMV promoter (240 μM) was 141 ± 11%. The “Inhibition of LP(10 mM)” value in series [8] was −23 ± 1.1^ %. Further, it took 13.7 ± 1.8 µM to reach half-maximal inhibition in the series on human hepatoma G2 cells (Homo sapiens, HepG2) (IC50).

As for `O=C1c2cccc(NCCO)c2C(=O)c2cccc(NCCO)c21` [IVb, 1,5-Bis(ethanolamino)anthraquinone], the “Relative SEAP activity (%)” value came to 91 ± 3.9% in [1] (3.0 μM); 88 ± 4.5% in series [1] (30 μM); 5.7 ± 1.1% in [1] (308 μM); 45 ± 20.6% in [2] (3.0 μM); 16 ± 13.1% in [2] (30 μM); 11 ± 11.6% in series [2] (308 μM). Further, the IC50 (usually the midpoint of a concentration-inhibition curve) is over 20 µM in the series on rat glioma C6 cells, 19.3 µM in [3] and over 20 µM in the series on human hepatoma G2 cells. Besides, the “Relative MTT viability (%)” value with hTERT-BJ1 cells (3 µM) turned out to be 116 ± 5.6%; with hTERT-BJ1 cells (30 µM) it was 90 ± 26.9%; in the series on hTERT-BJ1 cells (308 µM), 69 ± 18.7%; in series [4] (3 µM) it was 105 ± 6.3%; in series [4] (30 µM), 88 ± 9.1%; in series [4] (308 µM), 53 ± 2.8%.

Consider `O=C1c2cccc(NCCCCO)c2C(=O)c2cccc(NCCCCO)c21` [IVk, 1,5-Bis(butanolamino-)-anthraquinone], for which the “Relative SEAP activity (%)” value stood at 89 ± 4.9% in series [1] (2.6 μM); 71 ± 9.8% in series [1] (26 μM); 27 ± 2.0% in [1] (265 μM); 114 ± 20.5% in series [2] (2.6 μM); 113 ± 21.6% in series [2] (26 μM); 127 ± 19.9% in series [2] (265 μM). The half-inhibitory concentration (IC50) was over 20 µM with rat glioma C6 cells, 10.3 ± 0.24 µM in series [3] and over 20 µM in the series on human hepatoma G2 cells. Further, the “Relative MTT viability (%)” value was found to be 101 ± 10.5% in the series on hTERT-BJ1 cells (2.6 µM); 101 ± 8.8% with hTERT-BJ1 cells (26 µM); 91 ± 11.8% in the series on hTERT-BJ1 cells (265 µM); 114 ± 8.1% in [4] (2.6 µM); 110 ± 7.1% in series [4] (26 µM); 16 ± 3.4% in series [4] (265 µM).

In turn, `COc1ccc(CSc2cccc3c2C(=O)c2cccc(SCc4ccc(OC)cc4)c2C3=O)cc1` [IIj, 1,5-Bis(p-methoxybenzylthio)-Anthraquinone] came in with a melting point of 297 to 299 °C. Moreover, the activity at 2.2 µM in series [1] (Homo sapiens, NCI-H1299, 2.2 μM, H1299, read-out: Relative SEAP activity (%)) stood at 92 ± 3.3%. For the same compound, the activity at 22 µM in series [1] (Homo sapiens, NCI-H1299, 22 μM, H1299, read-out: Relative SEAP activity (%)) worked out at 96 ± 8.5%. Further, the activity at 220 µM in [1] (Homo sapiens, NCI-H1299, 220 μM, H1299, read-out: Relative SEAP activity (%)) was determined as 88 ± 5.6%. For the same compound, half-maximal inhibition in the series on rat glioma C6 cells (Rattus norvegicus, C6) (IC50) required 25.1 ± 2.8 µM. The activity at 2.2 µM in [2] (Homo sapiens, 2.2 μM, read-out: Relative SEAP activity (%)) is 142 ± 27.7%. Further, the activity at 22 µM in series [2] (Homo sapiens, 22 μM, read-out: Relative SEAP activity (%)) came to 141 ± 22.6%. In [2] (Homo sapiens, 220 μM, read-out: Relative SEAP activity (%)), the activity at 220 µM stood at 118 ± 19.2%. Also, the viability at 48 h, 2 µM in series [5] (2.0 μM) is 116 ± 13%. In addition, in series [5] (22 μM), the viability at 48 h, 22 µM was found to be 67 ± 18%. In [5] (220 μM), the viability at 48 h, 220 µM stood at 52 ± 7%. Besides, in [6], the viability at 48 h, 2.2 µM was 89 ± 6.1%; the viability at 48 h, 22 µM was 59 ± 5.4%; the viability at 48 h, 220 µM turned out to be 42 ± 0.3%. In addition, in series [7], the viability at 48 h, 2.2 µM was 119 ± 9.4%; the viability at 48 h, 22 µM amounted to 98 ± 13.4%; the viability at 48 h, 220 µM was determined as 62 ± 6.4%. For the same compound, in the series on CMV promoter (2.0 μM), the activity at 2 µM was 103 ± 15%. In addition, the activity at 22 µM in the series on CMV promoter (22 μM) worked out at 102 ± 8%. In addition, the activity at 220 µM with CMV promoter (220 μM) stood at 100 ± 8%. Also, the “LP (%) (10 mM)” value in [8] (relative percentage of inhibition (Table 1)) was found to be 67 ± 2.9%. Further, in the series with human hepatoma G2 cells (Homo sapiens, HepG2), the midpoint of inhibition, the IC50, lay at 28.6 ± 1.2 µM.

`CCC(=O)Oc1cccc2c1C(=O)c1cccc(OC(=O)CC)c1C2=O` [IIIa, 1,5-Bis(propionyloxy)-anthraquinone] showed a melting point of 230 to 231 °C. Besides, the activity at 2.8 µM in series [1] (Homo sapiens, NCI-H1299, 2.8 μM, H1299, read-out: Relative SEAP activity (%)) was found to be 103 ± 5.8%. Further, the activity at 28 µM in series [1] (Homo sapiens, NCI-H1299, 28 μM, H1299, read-out: Relative SEAP activity (%)) turned out to be 107 ± 4.9%. Besides, the activity at 280 µM in series [1] (Homo sapiens, NCI-H1299, 280 μM, H1299, read-out: Relative SEAP activity (%)) is 97 ± 3.1%. This compound also registered a 50% inhibitory concentration (IC50) with rat glioma C6 cells (Rattus norvegicus, C6) of 21.1 ± 1.6 µM. Besides, in series [2] (Homo sapiens, 2.8 μM, read-out: Relative SEAP activity (%)), the activity at 2.8 µM turned out to be 131 ± 7%. In [2] (Homo sapiens, 28 μM, read-out: Relative SEAP activity (%)), the activity at 28 µM worked out at 152 ± 16.7%. Further, in series [2] (Homo sapiens, 280 μM, read-out: Relative SEAP activity (%)), the activity at 280 µM was found to be 161 ± 12.2%. Also, in series [5] (2.8 μM), the viability at 48 h, 2.8 µM was 114 ± 16%. Moreover, the viability at 48 h, 28 µM in series [5] (28 μM) worked out at 110 ± 12%. For the same compound, the viability at 48 h, 280 µM in [5] (280 μM) is 94 ± 21%. Further, in series [6], the viability at 48 h, 2.8 µM came out at 116 ± 8%; the viability at 48 h, 28 µM came out at 116 ± 7.4%; the viability at 48 h, 280 µM is 87 ± 6.6%. In addition, in series [7], the viability at 48 h, 2.8 µM turned out to be 99 ± 11.9%; the viability at 48 h, 28 µM is 109 ± 8.7%; the viability at 48 h, 280 µM is 93 ± 10.8%. In the series on CMV promoter (2.8 μM), the activity at 2.8 µM turned out to be 101 ± 6%. In the series on CMV promoter (28 μM), the activity at 28 µM stood at 112 ± 6%. The activity at 280 µM in the series with CMV promoter (280 μM) was determined as 138 ± 12%. Besides, the “Inhibition of LP(10 mM)” value in series [8] is given as −100%. Besides, in the series on human hepatoma G2 cells (Homo sapiens, HepG2), inhibition was half-maximal at 4.1 ± 0.5 µM (IC50).
